Measurements as given in patent publication US7482489B2, “Enantiomerically pure (R)-albuterol dibenzoyltartrate and protected analogs thereof” (Teva Pharmaceutical Fine Chemicals S.r.l., priority 2004, dated 2009).
Structures can show the parent of a compound that is named as a salt. Each block holds one compound with its values, some of them ahead of it.

Columns and labels:
Format in all cases: physicochemical
[1] = Stability comparison of sample at 40° C. and 75% RH (HPLC area %)
Method: Yields were determined by mass. Chemical purity was determined by HPLC. The HPLC analysis was conducted using a column POLARIS C18-A 250 mm×4.6 mm×[…] (cat n.2002-250×046) and a mobile phase. The mobile phase comprised a phosphate buffer at pH 3.00 and acetonitrile in a gradient. The eluent flow was 1.0 ml/min. The detector was set to a wavelength of 230 nm, using an HPLC Hewlett Packard VWD detector HP 1100, as a detector.
Using the products of the previous examples, a stability study at 40° C. and 75% RH was carried out.

[2] = Stability of levalbuterol hydrochloride at 70° C. (HPLC area %, appearance)
Method: [table] […] At lower pH values, greater levalbuterol hydrochloride degradation occurred. […] Yields were determined by mass. Chemical purity was determined by HPLC. […] The mobile phase comprised a phosphate buffer at pH 3.00 and acetonitrile in a gradient. The eluent flow was 1.0 ml/min. The detector was set to a wavelength of 230 nm, using an HPLC Hewlett Packard VWD detector HP 1100, as a detector.

[3] = Stability of levalbuterol hydrochloride at different storage temperatures (HPLC area %)
Method: At lower pH values, greater levalbuterol hydrochloride degradation occurred. […] [table] […] The percentage LVB, Compound B, or Compound A is relative to the total amount of sample at time=T. Yields were determined by mass. Chemical purity was determined by HPLC. […] The mobile phase comprised a phosphate buffer at pH 3.00 and acetonitrile in a gradient. The eluent flow was 1.0 ml/min. The detector was set to a wavelength of 230 nm, using an HPLC Hewlett Packard VWD detector HP 1100, as a detector.

[4] = 3 months at 40° C. and 75% RH, Hydrochloride
[5] = 6 months at 40° C. and 75% RH, Hydrochloride
[6] = T = 0, 40° C. and 75% RH study, Hydrochloride
[7] = 1 week at 70° C., Hydrochloride
[8] = T = 0, before storage at 70° C., Hydrochloride

Compound: CC(C)(C)NC[C@H](O)c1ccc(O)c(CO)c1 [Example 12, Levalbuterol Hydrochloride]
Comp. A [1, 4]: 0.02%
Comp. B [1, 4]: 0.06%
LVB [1, 4]: 99.85%
Total Unknown Impurities [1, 4]: 0.07%
Total Unknown Impurities ([1]; 6 months at 40° C. and 75% RH): 0.09%
Comp. A [1, 5]: 0.02%
Comp. B [1, 5]: 0.06%
LVB [1, 5]: 99.83%
Comp. A [1, 6]: 0.02%
Comp. B [1, 6]: 0.01%
LVB [1, 6]: 99.91%
Total Unknown Impurities [1, 6]: 0.06%

Compound: CC(C)(C)NC[C@H](O)c1ccc(O)c(CO)c1 [Example 16, Levalbuterol Hydrochloride]
Comp. C ([1]; 3 months at 40° C. and 75% RH): 0.04%
Comp. A [1, 4]: 0.06%
Comp. B [1, 4]: 0.09%
LVB [1, 4]: 99.75%
Total Unknown Impurities [1, 4]: 0.08%
Comp. C ([1]; 6 months at 40° C. and 75% RH): 0.05%
Comp. A [1, 5]: 0.07%
Comp. B [1, 5]: 0.13%
LVB [1, 5]: 99.72%
Comp. A [1, 6]: 0.01%
Comp. B [1, 6]: 0.02%
LVB [1, 6]: 99.86%
Total Unknown Impurities [1, 6]: 0.11%

The next lines start with the values.

Comp. A [1, 4]: 0.03%
Comp. B [1, 4]: 0.07%
LVB [1, 4]: 99.85%
Total Unknown Impurities [1, 4]: 0.05%
Total Unknown Impurities ([1]; 6 months at 40° C. and 75% RH): 0.09%
Comp. A [1, 5]: 0.03%
Comp. B [1, 5]: 0.07%
LVB [1, 5]: 98.81%
Comp. A [1, 6]: 0.01%
Comp. B [1, 6]: 0.03%
LVB [1, 6]: 99.87%
Total Unknown Impurities [1, 6]: 0.09%
Compound: CC(C)(C)NC[C@H](O)c1ccc(O)c(CO)c1 [Example 8, Levalbuterol Hydrochloride]

Compound A [2, 7]: 0.72%
Compound B [2, 7]: 0.26%
Compound C [2, 7]: 0.18%
LVB (levalbuterol hydrochloride) [2, 7]: 97.1%
Sample (appearance) [2, 7]: Pale yellow
Total Unknown Impurities [2, 7]: 1.21%
Compound C ([2]; T = 0, before storage at 70° C.): 0.15%
Compound A [2, 8]: 0.24%
Compound B [2, 8]: 0.18%
LVB (levalbuterol hydrochloride) [2, 8]: 99.4%
Sample (appearance) [2, 8]: White solid^c
Compound: CC(C)(C)NC[C@H](O)c1ccc(O)c(CO)c1 [Example 21, Levalbuterol Hydrochloride]

Sample (appearance) [2, 8]: White solid
Compound A ([3]; 1 month, 25° C.): 0.03%
Compound B ([3]; 1 month, 25° C.): 0.02%
LVB ([3]; 1 month, 25° C.): 99.87%
Total Unknown Impurities ([3]; 1 month, 25° C.): 0.08%
Compound A ([3]; 2 months, 25° C.): 0.04%
Compound B ([3]; 2 months, 25° C.): 0.02%
LVB ([3]; 2 months, 25° C.): 99.82%
Total Unknown Impurities ([3]; 2 months, 25° C.): 0.12%
Compound A ([3]; 20 hrs, 40-45° C.): 0.11%
Compound B ([3]; 20 hrs, 40-45° C.): 0.30%
LVB ([3]; 20 hrs, 40-45° C.): 99.30%
Total Unknown Impurities ([3]; 20 hrs, 40-45° C.): 0.29%
Compound A ([3]; 20 hrs, 55-60° C.): 0.23%
Compound B ([3]; 20 hrs, 55-60° C.): 0.45%
LVB ([3]; 20 hrs, 55-60° C.): 98.17%
Total Unknown Impurities ([3]; 20 hrs, 55-60° C.): 1.15%
Compound A ([3]; 32 hrs, 55-60° C.): 0.26%
Compound B ([3]; 32 hrs, 55-60° C.): 0.45%
LVB ([3]; 32 hrs, 55-60° C.): 97.9%
Total Unknown Impurities ([3]; 32 hrs, 55-60° C.): 1.39%
Compound A ([3]; 10 days, 25° C.): 0.02%
Compound B ([3]; 10 days, 25° C.): 0.01%
LVB ([3]; 10 days, 25° C.): 99.88%
Total Unknown Impurities ([3]; 10 days, 25° C.): 0.09%
Compound A ([3]; T = 0, 20° C., MeOH 6700 ppm): 0.028%
Compound B ([3]; T = 0, 20° C., MeOH 6700 ppm): 0.035%
LVB ([3]; T = 0, 20° C., MeOH 6700 ppm): 99.84%
Total Unknown Impurities ([3]; T = 0, 20° C., MeOH 6700 ppm): 0.097%
Compound A ([3]; T = 0, 25° C., MeOH 2090 ppm): 0.02%
Compound B ([3]; T = 0, 25° C., MeOH 2090 ppm): 0.01%
LVB ([3]; T = 0, 25° C., MeOH 2090 ppm): 99.90%
Total Unknown Impurities ([3]; T = 0, 25° C., MeOH 2090 ppm): 0.07%
Compound: CC(C)(C)NC[C@H](O)c1ccc(O)c(CO)c1 [levalbuterol hydrochloride, (R)-α^1-[[(1,1-dimethylethyl)amino]methyl]-4-hydroxy-1,3-benzenedimethanol hydrochloride]
